Data as given in PMC10987949, “Inhibition of HIV-1 release by ADAM metalloproteinase inhibitors” (Frontiers in Microbiology, 2024).

Key:
[1] = biological target: T1, recombinant HIV-1 protease (Human immunodeficiency virus type 1 group M subtype B, UniProt P04585); test: HIV-1 protease fluorogenic substrate cleavage; type: biochemical; conditions: 100nM saquinavir or nelfinavir; MMP inhibitors up to 10uM
T1 construct: recombinant HIV-1 protease; purchased Sigma-Aldrich SRP2151
Method: HIV-1 protease enzymatic activity was assayed in black 96-well plates at room temperature using a Synergy_h1 fluorescent plate reader with 340 nm excitation and 490 nm emission wavelengths (BioTek). Each enzymatic reaction consisted of a mixture of 100 ng of recombinant HIV-1 protease (Sigma-Aldrich catalog SRP2151), 5 μM concentration of a fluorogenic substrate Arg-Glu(EDANS)-[…]DABCYL)-Arg (Sigma-aldrich catalog H6660), and various concentrations of inhibitor compounds in 100 μL of assay buffer (0.15 M sodium chloride, 1.0 mM EDTA, 1.0 mM DTT, 0.1 M sodium acetate, pH 5.0). The fluorescence of the cleavage reaction was continuously read at every 30 s for a total of 40 min.

[2] = test system: CD62L shedding; test: Soluble CD62L ELISA, unstimulated PBMC; type: cell-based, human; conditions: non-stimulated cells, ELISA
Method: PBMC from de-identified healthy donors were obtained with informed consent from the Department of Transfusion Medicine, National Institutes of Health under Biological reagent Registry RD-14-IX-12 approved by NIH biological safety board. CD8-depleted PBMCs, either stimulated or non-stimulated with 10 μg/mL phytohaemagglutinin (PHA) or anti-CD3 antibody (with or without conjugated beads), were plated at 2×10^6 cells/ml in 48 well plates in RPMI 1640 + 10%FBS (R10) to a final volume of 1 mL in each well. IL-2 was added at a final concentration of 20 U/mL. CD3 antibody okt3 was used at ~0.2 μg/mL final concentration. […] Supernatants were collected and assessed using either the CD62L or TNF-α Duo Set ELISA kit according to manufacturer's instructions (R&D Systems, Inc.). The viability of cells treated with compounds was assessed by acridine orange / propidiom iodide (AO/PI Logosbio catalog F23001) staining using Luna-FL cell counter following the manufacture's instruction.^2 […] Supplemental Figure 1. CD62L shedding from unstimulated PBMC. A) Soluble CD62L in the supernatant of unstimulated PBMC was measured By ELISA (R&D systems, Inc) after 24 hour treatment in the presence of 10 μM of […]), aminopeptidase (AP) protease inhibitors, respectively, or their untreated controls. Statistics were calculated using unpaired parametric student t-test between individual treatment and DMSO control. […] B) Viability of PBMC treated with 10-500 μM of MMP inhibitors for 24hours. […] Untreated DMSO AEBSF 3,4-Dichloroisocouman Granzyme B Inhibitor II Granzyme B Inhibitor IV Aprotinin […] 3 4 CD62L shedding from unstimulated PBMC Soluble CD62L (ng/ml) Inhibitor Class […] GI254023X 10 GI254023X 100 […] GI254023X 1000 GW280264X 10 GW280264X 100 […] GW280264X 1000 Marimastat 10 Marimastat 100 Marimastat 250 […]

[3] = test system: PBMC; test: PBMC viability (AO/PI staining); type: cell-based, human; conditions: for PBMC viability at 24hr post treatment: 10-500 μM of MMP inhibitors for 24hours
Method: PBMC from de-identified healthy donors were obtained with informed consent from the Department of Transfusion Medicine, National Institutes of Health under Biological reagent Registry RD-14-IX-12 approved by NIH biological safety board. CD8-depleted PBMCs, either stimulated or non-stimulated with 10 μg/mL phytohaemagglutinin (PHA) or anti-CD3 antibody (with or without conjugated beads), were plated at 2×10^6 cells/ml in 48 well plates in RPMI 1640 + 10%FBS (R10) to a final volume of 1 mL in each well. IL-2 was added at a final concentration of 20 U/mL. CD3 antibody okt3 was used at ~0.2 μg/mL final concentration. Compounds were prepared in appropriate solvents according to the manufacturer’s instructions, diluted to working concentrations using RPMI 1640 + 10%FBS (R10), and added to the cell cultures for 6–24 h for CD62L shedding, and 48 h for TNF-α release. Supernatants were collected and assessed using either the CD62L or TNF-α Duo Set ELISA kit according to manufacturer’s instructions (R&D Systems, Inc.). The viability of cells treated with compounds was assessed by acridine orange / propidiom iodide (AO/PI Logosbio catalog F23001) staining using Luna-FL cell counter following the manufacture’s instruction.^2

[4] = test system: CD62L shedding; test: Soluble CD62L ELISA, anti-CD3/PHA stimulated PBMC or CD4 T cells; type: cell-based, human
Method: PBMC from de-identified healthy donors were obtained with informed consent from the Department of Transfusion Medicine, National Institutes of Health under Biological reagent Registry RD-14-IX-12 approved by NIH biological safety board. […] IL-2 was added at a final concentration of 20 U/mL. CD3 antibody okt3 was used at ~0.2 μg/mL final concentration. […] Supernatants were collected and assessed using either the CD62L or TNF-α Duo Set ELISA kit according to manufacturer’s instructions (R&D Systems, Inc.). The viability of cells treated with compounds was assessed by acridine orange / propidiom iodide (AO/PI Logosbio catalog F23001) staining using Luna-FL cell counter following the manufacture’s instruction.^2

[5] = test system: HIV-1BAL; test: HIV-1BAL infection of CD8-depleted PBMC, FACS (intracellular p24, CD4, CD62L); type: cell-based; conditions: day 6; 0.5μM compounds
Excerpt: The use of healthy human peripheral blood mononuclear cells (PBMC) is approved by the Department of Transfusion Medicine at the Clinical Center of National Institutes of Health. The use of PBMC from HIV-1 infected individuals for the study was approved under protocol #02-I-0202 by the Institutional Review Board (IRB) of National Institutes of Health with written informed consent from all donors. Peripheral blood mononuclear cells (PBMCs) from anonymous healthy donors were isolated by Ficoll-Paque gradient, and cultured in RPMI 1640 supplemented with 10% FBS, 1%Penicillin/streptomycin, 1% HEPES buffer and 20 U/mL IL-2 (culture media); and stimulated with 0.2 μg/mL anti-CD3 antibody (okt3) for 2 days. CD8^+ T cells were depleted prior to infection using the Stemcell CD8 positive selection kit according to manufacturer’s instructions. CD8-depleted PBMCs were plated at 2×10^6 cells/ml in 48-well plates in 1 mL culture media with various inhibitors for 60 min prior to the addition of ~80 TCID50 HIV-1BAL or HIV-1LAI. Inhibitors were replenished during media change every 3 days. The infections were proceeded with or without inhibitors for 6 days or otherwise specified number of days and then analyzed by FACS staining using fluorescent labeled CD4-BV510, CD62L-APC and CD3-PEC7 antibodies (BD Biosciences). Cells were then washed and permeabilized with CytoFix/CytoPerm (BD Biosciences) solution before intracellular staining for HIV p24 antigen using FITC conjugated anti-p24 antibody clone KC57 (Beckman Coulter, catalog 6604665). All assays were performed with cell viabilities >80%. Replication competent HIV-1 viruses were obtained from the NIH AIDS Reagent Program^4, and expanded by infecting activated CD8-depleted PBMCs, and TCID50 was determined by p24 ELISA.

[6] = 10 μM compound, stimulated cells, ELISA

CC(C)(C)NC(=O)[C@@H]1C[C@@H]2CCCC[C@@H]2CN1C[C@@H](O)[C@H](Cc1ccccc1)NC(=O)[C@H](CC(N)=O)NC(=O)c1ccc2ccccc2n1 [saquinavir]
effect on HIV protease cleavage of fluorogenic substrate [1]: suppressed the substrate cleavage by HIV protease

CNC(=O)[C@@H](NC(=O)[C@H](CC(C)C)[C@H](O)C(=O)NO)C(C)(C)C [Marimastat]
inhibition at 10 µM ([2]; Homo sapiens, PBMC, 10 μM compound, read-out: Shedding inhibition Non-stim.): > 50%
PBMC viability at day 6 post infection with HIV-1 BAL ([3]; 50uM): significant loss in cell viability
PBMC viability at 24hr post treatment [3]: No significant decrease in the viability
inhibition at 10 µM ([4]; Homo sapiens, 10 μM compound, stimulated cells, ELISA): > 50%

Cc1cc(CCC[C@H](CC(=O)NO)C(=O)N[C@H](C(=O)N[C@H](C)c2ccccc2)C(C)(C)C)ccc1-c1ccccc1 [UK-356618, (2R)-N1-[(1S)-2,2-Dimethyl-1-({[(1R)-1-phenylethyl]amino}carbonyl)propyl]-2-{3-[(3-methyl-4-phenyl)-phenyl]propyl}-(N4-hydroxy)butanediamide]
Shedding inhibition Non-stim. ([2]; 10 μM compound): − (0% inhibition)
Shedding inhibition Stimulated [4, 6]: − (0% inhibition)

CCOCOC[C@H](C[C@H](C)C(=O)NO)NC(=O)c1ccc(Oc2ccccc2)cc1 [ONO-4817]
Shedding inhibition Non-stim. ([2]; 100 μM compound): + (20–50)
Shedding inhibition Stimulated ([4]; 100 μM compound, stimulated cells, ELISA): +/− (<20)

GW280264X
Shedding inhibition Non-stim. ([2]; 10 μM compound): +/− (<20)
PBMC viability at 24hr post treatment [3]: No significant decrease in the viability
Shedding inhibition Stimulated [4, 6]: +/− (<20)

Cc1c(O)cccc1C(=O)N[C@@H](CSc1ccccc1)[C@H](O)CN1C[C@H]2CCCC[C@H]2C[C@H]1C(=O)NC(C)(C)C [nelfinavir]
effect on HIV protease cleavage of fluorogenic substrate [1]: suppressed the substrate cleavage by HIV protease
p24 staining in HIV-1BAL infection of PBMC [5]: no significant staining
PBMC viability at day 3 post treatment ([3]; 10uM): significant reduced cell viability
effect on CD62L shedding from stimulated PBMC ([4]; titration of HAART compounds, concentration range tested): did not inhibit CD62L shedding
